Source: publication PMC9609767, “Radiosynthesis and Preclinical Evaluation of an ^18F-Labeled Triazolopyridopyrazine-Based Inhibitor for Neuroimaging of the Phosphodiesterase 2A (PDE2A)” (Pharmaceuticals, 2022)

Assays:
[1] = logD by shake flask method (n-octanol/PBS); assay type: physicochemical; conditions: n-octanol/phosphate-buffered saline, n = 4
Method: (§1) In order to estimate the lipophilicity of [^18F]11, the partition coefficient was determined by the shake flask method using n-octanol and phosphate-buffered saline as partition system. […] The chemical stability of the radiotracer was investigated by incubation in phosphate-buffered saline (PBS) and n-octanol at 30 °C.
(§2) The determination of stability and logD value has been performed according to the procedures described by Sadeghzadeh and Wenzel et al..

[2] = Chemical stability of the radiotracer in PBS and n-octanol; assay type: physicochemical; conditions: 30 °C, 60 min, radio-HPLC
Method: as §1, §2

[3] = In vivo metabolism in SPRD rats (radio-HPLC of plasma and brain); conditions: rat, 30 min p.i., i.v.
Method: Metabolism in rats has been investigated in the animals applied in PET studies (protocol reported below). In brief, blood was taken from two anesthetized female SPRD rats 30 min after intravenous injection of [^18F]11 followed by decapitation and isolation of the brains. The blood samples and the brains were processed as described above.
Protein precipitation was performed by the addition of ice-cold ACN/H2O (9:1, v/v) in a ratio of 4:1 (v/v) of organic solvent to plasma or brain homogenate, respectively. The samples were vortexed for 3 min, equilibrated on ice for 3 min, and centrifuged for 10 min at 10,000 rpm and the supernatant collected. The precipitates were washed with 100 μL of the solvent mixture and subjected to the same procedure. The combined supernatants were concentrated at 70 °C under argon flow to a final volume of approximately 100 μL and analysed by analytical radio-HPLC with a gradient system (see radiochemistry general section). The peak corresponding to the radiotracer in the radio-chromatogram was identified by co-injecting the sample with the reference compound 11. To determine the percentage of activity in the supernatants compared to total activity, aliquots of each step as well as the precipitates were quantified by an automated gamma counter (1480 WIZARD, Perkin Elmer, Turku, Finland). […]

[4] = Dynamic PET/MR study in CD-1 mouse; assay type: in vivo; conditions: for Uptake (SUVmean): uncorrected for metabolites
Method: (§3) For the time of the experiments, one female CD-1 mouse (10 weeks; 30.5 g) and one female SPRD rat (9 weeks; 256 g) were kept in a dedicated climatic chamber with free access to water and food under a 12:12 h dark:light cycle at a constant temperature (24 °C). The animals were anesthetized (Anaesthesia Unit U-410, agntho’s, Lidingö, Sweden) with isoflurane (2.0%, 300 mL/min) delivered in a 60% oxygen/40% air mixture (Gas Blender 100 Series, MCQ instruments, Rome, Italy) and their body temperature maintained at 37 °C with a thermal bed system for the duration of the PET studies. A dynamic PET scan (PET/MR 1T, Mediso nanoScan®, Hungary) started 20 s before intravenous injection into the tail vein of [^18F]11 and was performed in mouse for 60 min (4.9 MBq in 150 μL isotonic saline; 20.5 nmol/kg; Am: 8.9 GBq/μmol, EOS) in rat for 30 min (29.7 MBq in 400 μL isotonic saline; 12 nmol/kg; Am: 11 GBq/μmol, EOS). Each PET image was corrected for random coincidences, dead time, scatter and attenuation (AC), based on a whole body (WB) MR scan. The reconstruction parameters for the list mode data were 3D-ordered subset expectation maximization (OSEM), 4 iterations, 6 subsets, energy window: 400–600 keV, coincidence mode: 1–5, ring difference: 81. Preceding the PET scan a T1 weighted WB gradient echo sequence (TR/TE: 20/6.4 ms, NEX: 1, FA: 25, FOV: 64 × 64 mm, Matrix: 128 × 128, STh: 0.5 mm) was performed for AC and anatomical orientation. PET Images were analyzed with PMOD (PMOD Technologies LLC, v. 4.1, Zurich, Switzerland). The respective brain regions were identified using the mouse brain atlas template Ma-Benveniste-Mirrione-T2 or the rat brain atlas template Schwarz-T2. The regional activity data (radioactivity concentration, kBq/mL) were normalized to the injected dose (MBq) and corrected for the animal weight (g) to provide standardized uptake values (SUV, g/mL). Finally, the results of the PETscans are expressed as mean SUV of the respective region of interest ROI.

[5] = Dynamic PET/MR study in SPRD rat; assay type: in vivo
Method: as §3

CCCC(O)c1ccc([18F])c(-c2nnc3c(C)nc4ccc(C5CC5)nc4n23)c1 (stereo not shown) [[^18F]11]
logD [1]: 1.79 ± 0.66 | chemical stability [2]: stable | fraction of non-metabolized radiotracer in brain [3]: 66% | fraction of non-metabolized radiotracer in plasma [3]: about 50% | maximum SUV in small intestine ([4]; 60 min p.i.): ~ 35 SUV | SUV in bladder, spleen, muscle, gallbladder, kidney, and liver ([4]; all time points investigated): < 5 SUV | Uptake (SUVmean) ([4]; bladder, 5 min): 0.10 SUV | Uptake (SUVmean) ([4]; bladder, 15 min): 0.08 SUV | Uptake (SUVmean) ([4]; bladder, 30 min): 0.10 SUV | Uptake (SUVmean) ([4]; bladder, 45 min): 0.07 SUV | Uptake (SUVmean) ([4]; bladder, 60 min): 0.06 SUV | Uptake (SUVmean) ([4]; blood, 5 min): 0.93 SUV | Uptake (SUVmean) ([4]; blood, 15 min): 0.56 SUV | Uptake (SUVmean) ([4]; blood, 30 min): 0.46 SUV | Uptake (SUVmean) ([4]; blood, 45 min): 0.34 SUV | Uptake (SUVmean) ([4]; blood, 60 min): 0.32 SUV | Uptake (SUVmean) ([4]; bones, 5 min): 0.71 SUV | Uptake (SUVmean) ([4]; bones, 15 min): 0.47 SUV | Uptake (SUVmean) ([4]; bones, 30 min): 0.31 SUV | Uptake (SUVmean) ([4]; bones, 45 min): 0.23 SUV | Uptake (SUVmean) ([4]; bones, 60 min): 0.20 SUV | Uptake (SUVmean) ([4]; caecum, 5 min): 0.10 SUV | Uptake (SUVmean) ([4]; caecum, 15 min): 0.12 SUV | Uptake (SUVmean) ([4]; caecum, 30 min): 0.11 SUV | Uptake (SUVmean) ([4]; caecum, 45 min): 0.11 SUV | Uptake (SUVmean) ([4]; caecum, 60 min): 0.16 SUV | TAC peak value (SUV) ([4]; cerebellum, at 0.8 min): 0.61 SUV | TAC peak value (SUV) ([4]; cortex, at 2.8 min): 0.47 SUV | Uptake (SUVmean) ([4]; gallbladder, 5 min): 1.41 SUV | Uptake (SUVmean) ([4]; gallbladder, 15 min): 1.78 SUV | Uptake (SUVmean) ([4]; gallbladder, 30 min): 1.46 SUV | Uptake (SUVmean) ([4]; gallbladder, 45 min): 1.32 SUV | Uptake (SUVmean) ([4]; gallbladder, 60 min): 1.34 SUV | Uptake (SUVmean) ([4]; heart, 5 min): 1.11 SUV | Uptake (SUVmean) ([4]; heart, 15 min): 0.65 SUV | Uptake (SUVmean) ([4]; heart, 30 min): 0.52 SUV | Uptake (SUVmean) ([4]; heart, 45 min): 0.37 SUV | Uptake (SUVmean) ([4]; heart, 60 min): 0.35 SUV | TAC peak value (SUV) ([4]; hippocampus, at 2.8 min): 0.70 SUV | Uptake (SUVmean) ([4]; kidney left, 5 min): 2.79 SUV | Uptake (SUVmean) ([4]; kidney left, 15 min): 2.37 SUV | Uptake (SUVmean) ([4]; kidney left, 30 min): 1.61 SUV | Uptake (SUVmean) ([4]; kidney left, 45 min): 1.18 SUV | Uptake (SUVmean) ([4]; kidney left, 60 min): 1.17 SUV | Uptake (SUVmean) ([4]; liver, 5 min): 3.40 SUV | Uptake (SUVmean) ([4]; liver, 15 min): 4.16 SUV | Uptake (SUVmean) ([4]; liver, 30 min): 3.62 SUV | Uptake (SUVmean) ([4]; liver, 45 min): 3.17 SUV | Uptake (SUVmean) ([4]; liver, 60 min): 3.00 SUV | Uptake (SUVmean) ([4]; lung, 5 min): 0.65 SUV | Uptake (SUVmean) ([4]; lung, 15 min): 0.43 SUV | Uptake (SUVmean) ([4]; lung, 30 min): 0.33 SUV | Uptake (SUVmean) ([4]; lung, 45 min): 0.25 SUV | Uptake (SUVmean) ([4]; lung, 60 min): 0.25 SUV | Uptake (SUVmean) ([4]; muscle, 5 min): 0.63 SUV | Uptake (SUVmean) ([4]; muscle, 15 min): 0.49 SUV | Uptake (SUVmean) ([4]; muscle, 30 min): 0.35 SUV | Uptake (SUVmean) ([4]; muscle, 45 min): 0.26 SUV | Uptake (SUVmean) ([4]; muscle, 60 min): 0.21 SUV | Uptake (SUVmean) ([4]; small intestine, 5 min): 2.10 SUV | Uptake (SUVmean) ([4]; small intestine, 15 min): 9.48 SUV | Uptake (SUVmean) ([4]; small intestine, 30 min): 20.64 SUV | Uptake (SUVmean) ([4]; small intestine, 45 min): 29.65 SUV | Uptake (SUVmean) ([4]; small intestine, 60 min): 35.11 SUV | Uptake (SUVmean) ([4]; spleen, 5 min): 0.48 SUV | Uptake (SUVmean) ([4]; spleen, 15 min): 0.59 SUV | Uptake (SUVmean) ([4]; spleen, 30 min): 0.45 SUV | Uptake (SUVmean) ([4]; spleen, 45 min): 0.30 SUV | Uptake (SUVmean) ([4]; spleen, 60 min): 0.24 SUV | Uptake (SUVmean) ([4]; stomach, 5 min): 0.15 SUV | Uptake (SUVmean) ([4]; stomach, 15 min): 0.18 SUV | Uptake (SUVmean) ([4]; stomach, 30 min): 0.19 SUV | Uptake (SUVmean) ([4]; stomach, 45 min): 0.17 SUV | Uptake (SUVmean) ([4]; stomach, 60 min): 0.13 SUV | TAC peak value (SUV) ([4]; striatum, at 2.8 min): 0.71 SUV | peak value of brain time-activity curve (SUV) ([4]; whole brain, at 2.8 min p.i.): 0.55 SUV | SUV caudate putamen ([5]; 15 min p.i.): 0.51 SUV | SUV cerebellum ([5]; 15 min p.i.): 0.40 SUV | peak value of brain uptake (SUV) ([5]; whole brain, at 0.6 min): 0.97 SUV
